Source: patent US4933348A, “Heterocyclic compounds” (priority 1985, dated 1990)

Key:
[1] = test system: SRS-A-induced contraction of guinea-pig ileum; assay: Inhibition of SRS-A-induced contraction of isolated guinea-pig ileum; design: species or system guinea-pig (male Hartley); settings: submaximal concentration of SRS-A (derived from guinea pig lung), incubation 20 minutes, 37° C., read-out: IC 50 (M), Ileum, Anti-SRS-A
Experimental: (§1) (1) Inhibition of SRS-A- and LTD4 -induced contraction of guinea-pig ileum and trachea
(§2) Methods: Male Hartley guinea-pigs, weighing 500 to 700 g were sacrificed by a blow on the head The ileum and tracheal strips prepared according to the method of Constantine (Constantine, J. W., J. Pharm Pharmacol., 17, 384 (1965)) were suspended with 1.0 g tension in an organ bath containing 10 ml of Tyrode solution equilibrated with a mixture of 95% O2 and 5% CO2 at 37° C. The tissues were equilibrated for 60 minutes; during this period the Tyrode solution was replaced every 15 minutes and the loading tension was adjusted to 1.0 g. The developed tension of the tissues was measured isometrically with a strain gauge transducer, and recorded on a Recticorder. Both the contractile response of the ileum to submaximal concentration of SRS-A (derived from guinea pig lung) and tracheal response to 10^-8 M LTD4 were recorded in the absence and then in the presence of various concentrations of test compounds. The incubation time of the compounds was 20 minutes.

[2] = test system: LTD4-induced contraction of guinea-pig trachea; assay: Inhibition of LTD4-induced contraction of isolated guinea-pig trachea; design: species or system guinea-pig (male Hartley); settings: 10^-8 M LTD4; for inhibition of the contractions induced by LTD4 (in words): isolated guinea pig trachea; for IC50: isolated guinea-pig trachea, incubation 20 minutes, 37° C., read-out: IC 50 (M), Trachea, Anti-LTD4
Experimental: as §1, §2

[3] = test system: LTD4-enhanced vascular permeability; assay: Inhibition of LTD4-enhanced vascular permeability in guinea-pig; format: in vivo, guinea-pig (male Hartley); settings: for ED50: Cavia porcellus, po, 30 minutes before LTD4 injection (5 ng intradermal); for anti-leukotriene effect by oral route (in words) / inhibition of LTD4-enhanced vascular permeability (in words): p.o.; for inhibition of LTD4-enhanced vascular permeability (in words): 30 minutes before LTD4 injection
Experimental: (2) Inhibition of LTD4 -enhanced vascular permeability in guinea-pig
Method: Male Hartley quinea-pigs weighing 270 to 305 g, starved for 16 hours, were intradermally injected 5 ng LTD4 in a volume of 0.1 ml into two sites on the shaved back. In addition, 0.1 ml of vehicle was injected intradermally in each animal to see non-specific irritation. One ml of saline containing 1% Evans blue was intravenously injected 2 minutes before LTD4 injection. Animals were sacrificed 30 minutes after LTD4 injection. The leaked dye at the site of LTD4 or vehicle injection was extracted according to the method of Harada et al. (Harada, M. et al., J. Pharm. Pharmacol., 23, 218 (1971)) and measured photometrically at 620 nm. The LTD4 -induced skin reaction was expressed as a difference in the amount of dye between LTD4 and vehicle. Test compounds were orally administered 30 minutes before LTD4 injection.

Row | IC50 [1] [M] | IC50 [2] [M] | SMILES | inhibition of the contractions induced by LTD4 (in words) [2] | ED50 [3] [mg/kg] | anti-leukotriene effect by oral route (in words) [3] | inhibition of LTD4-enhanced vascular permeability (in words) [3]
1 | 1.1e-08 | 7.8e-09 | CCCc1c(CSc2nnc(SCCC[S+]([O-])CC(=O)O)s2)ccc(C(C)=O)c1O (stereo not shown) [Example 35, [3-[[5-[(4-acetyl-3-hydroxy-2-propylbenzyl)thio]-1,3,4-thiadiazol-2-yl]thio]propylsulfinyl]acetic acid] | potently inhibited |  |  | 
2 | 1.1e-09 | 2.9e-09 | CCCc1c(CSc2nnc(SCCCS(=O)(=O)CC(=O)O)s2)ccc(C(C)=O)c1O [Example 36, [3-[[5-[(4-acetyl-3-hydroxy-2-propylbenzyl)thio]-1,3,4-thiadiazol-2-yl]thio]propylsulfonyl]acetic acid] | potently inhibited |  |  | 
3 | 9.1e-09 |  | CCCc1c(CSc2nnc(SCCCCC(=O)O)s2)ccc(C(C)=O)c1O [Example 11, 5-[[5-[(4-acetyl-3-hydroxy-2-propylbenzyl)thio]-1,3,4-thiadiazol-2-yl]thio]valeric acid] |  |  |  | 
4 | 4.1e-09 |  | CCCc1c(CSc2nnc(SCCCC(=O)O)s2)ccc(C(C)=O)c1O [Example 4, 4-[[5-[(4-acetyl-3-hydroxy-2-propylbenzyl)thio]-1,3,4-thiadiazol-2-yl]thio]butyric acid] |  |  |  | 
5 | 2.9e-10 | 5.4e-08 | CCCc1c(CSc2nnc(SCc3ccc(OCC(=O)O)cc3)s2)ccc(C(C)=O)c1O [Example 33, [p-[[[5-[(4-acetyl-3-hydroxy-2-propylbenzyl)thio]-1,3,4-thiadiazol-2-yl]thio]methyl]phenoxy]acetic acid] | potently inhibited |  |  | 
6 | 5.1e-08 |  | CCCc1c(CSc2nnc(SCCCCCC(=O)OCC)s2)ccc(C(C)=O)c1O [Example 10, ethyl 6-[[5-[(4-acetyl-3-hydroxy-2-propylbenzyl)thio]-1,3,4-thiadiazol-2-yl]thio]hexanate] |  |  |  | 
7 | 3.1e-08 |  | CCCc1c(CSc2nnc(SCc3ccc(CCC(=O)O)cc3)s2)ccc(C(C)=O)c1O [Example 46, 3-[p-[[[5-[(4-acetyl-3-hydroxy-2-propylbenzyl)thio]-1,3,4-thiadiazol-2-yl]thio]methyl]phenyl]propionic acid] |  |  |  | 
8 | 3.6e-09 | 1.1e-08 | CCCc1c(CSc2nnc(SCc3ccc(C(=O)O)cc3)s2)ccc(C(C)=O)c1O [Example 37, p-[[5-[(4-acetyl-3-hydroxy-2-propylbenzyl)thio]-1,3,4-thiadiazol-2-yl]thiomethyl]benzoic acid] | potently inhibited | 7 | potent anti-leukotriene effect | dose-dependently inhibited
9 | 4e-09 |  | CCCc1c(CSc2nnc(SCCCCCC(=O)O)s2)ccc(C(C)=O)c1O [Example 12, 6-[[5-[(4-acetyl-3-hydroxy-2-propylbenzyl)thio]-1,3,4-thiadiazol-2-yl]thio]hexanoic acid] |  |  |  | 
10 | 2.2e-08 |  | CCCc1c(CSc2nnc(NC(=O)C(=O)O)s2)ccc(C(C)=O)c1O [Example 22, [5-[(4-acetyl-3-hydroxy-2-propylbenzyl)thio]-1,3,4-thiadiazol-2-yl]oxamidic acid] |  |  |  | 
11 | 3.3e-09 |  | CCCc1c(CSc2nnc(NC(=O)CCC(=O)O)s2)ccc(C(C)=O)c1O [Example 24, 4-[[5-[(4-acetyl-3-hydroxy-2-propylbenzyl)thio]-1,3,4-thiadiazol-2-yl]amino]-4-oxobutyric acid] |  |  |  | 
12 |  |  | CCCc1c(CSc2nnc(SCc3ccc(OC(C)C(=O)O)cc3)s2)ccc(C(C)=O)c1O (stereo not shown) [Example 34, 2-[p-[[[5-[(4-acetyl-3-hydroxy-2-propylbenzyl)thio]-1,3,4-thiadiazol-2-yl]thio]methyl]phenoxy]propionic acid] |  | 4.2 |  | 
13 | 4.7e-09 | 3.8e-09 | CCCc1c(CSc2nnc(SCc3ccc(CSCC(=O)O)cc3)s2)ccc(C(C)=O)c1O [Example 43, [[p-[[[5-[(4-acetyl-3-hydroxy-2-propylbenzyl)thio]-1,3,4-thiadiazol-2-yl]thio]methyl]benzyl]thio]acetic acid] | potently inhibited |  |  | 
14 | 2.1e-08 |  | CCCc1c(CSc2nnc(SCCCCCCC(=O)O)s2)ccc(C(C)=O)c1O [Example 13, 7-[[5-[(4-acetyl-3-hydroxy-2-propylbenzyl)thio]-1,3,4-thiadiazol-2-yl]thio]heptanoic acid] |  |  |  | 
15 | 5e-08 |  | CCCc1c(CSc2nccc(O)n2)ccc(C(C)=O)c1O [Example 14, 2-[(4-acetyl-3-hydroxy-2-propylbenzyl)thio]-4-hydroxypyrimidine] |  |  |  | 
16 | 4.5e-08 | 1.9e-07 | CCCc1c(CSc2snc(O)c2C(=O)O)ccc(C(C)=O)c1O [Example 44, 5-[(4-acetyl-3-hydroxy-2-propylbenzyl)thio]-3-hydroxy-4-isothiazolecarboxylic acid] | potently inhibited |  |  | 
17 | 4.2e-08 | 4e-08 | CCCc1c(CSc2nnc(SCC(=O)O)s2)ccc(C(C)=O)c1O [Example 2, [[5-[(4-acetyl-3-hydroxy-2-propylbenzyl)thio]-1,3,4-thiadiazol-2-yl]thio]-acetic acid] | potently inhibited | 11.3 | potent anti-leukotriene effect | dose-dependently inhibited
18 | 1.5e-10 | 3e-09 | CCCc1c(CSc2nnc(SCCCSCC(=O)O)s2)ccc(C(C)=O)c1O [Example 32, [[3-[[5-[(4-acetyl-3-hydroxy-2-propylbenzyl)thio]-1,3,4-thiadiazol-2-yl]thio]propyl]thio]acetic acid] | potently inhibited |  |  | 
